# What was measured:
# [1] = test system: EFSCs; experiment: Directed differentiation of eye field stem cells into ocular neural crest stem cells; assay type: cell-based, human; settings: 3 μM in NCSC induction medium; after a week of induction
# Method: Directed differentiation of eye field stem cells into ocular neural crest stem cells. […] The in vitro derivation of neural crest stem cells from PSCs has been previously described (Chambers et al., 2013; Lee et al., 2007). It was reasoned that, if EFSCs could be primed toward ocular neural crest lineage, the cells could serve as a direct and renewable source to generate CECs in culture. To direct EFSCs toward neural crest fate, EFSCs were seeded at low density, and neural crest lineage specification was initiated in NCSC induction medium supplemented with the presence of 3 μM CHIR 99021. […] Immunostaining also detected the expression of nuclear translocation of beta-catenin (FIG. 4C), an indication of increased WNT canonical signaling during neural crest formation.
# [2] = test system: EFSC-derived NCSCs; experiment: Differentiation of CECs from ocular neural crest stem cells; assay type: cell-based, human; settings: added to the differentiation medium
# Method: Differentiation of CECs from ocular neural crest stem cells. In order to test if CECs could be induced from the EFSC-derived NCSCs directly in vitro, NCSCs were seeded at low cell density on an FNC coated plate. […] They remained proliferative and formed a relatively homogenous monolayer of cells after a few passages (FIG. 5B). To further characterize the NCSC-derived CEC sheets, immunostaining for several typical CEC markers including tight junction protein 1 (TJP1/ZO-1), N-Cadherin, and Na+/K+ ATPase was performed (FIG. 5C).
# [3] = test system: rabbit corneal endothelium; experiment: Rabbit corneal endothelium injury model; assay type: in vivo; settings: compared
# [4] = test system: CEC; experiment: CEC migration, proliferation and wound healing with ROCK inhibitor; assay type: cell-based; settings: compared with Y-27632
# [5] = test system: corneal endothelial cells (CECs); settings: cited from earlier work
compound,measurement,setting,value
Cc1c[nH]c(-c2cnc(NCCNc3ccc(C#N)cn3)nc2-c2ccc(Cl)cc2Cl)n1 [CHIR 99021],expression of NCSC surface marker HNK-1,[1],majority of EFSCs start to express a typical NCSC surface marker HNK-1
Cc1cncc2cccc(S(=O)(=O)N3CCCNC[C@@H]3C)c12 [H-1125],effect on differentiation of CECs,[2],improve the differentiation of CECs
same,wound healing effect,[3],better wound healing effect
same,"effect on CEC migration, proliferation and wound healing",[4],more significant stimulatory effect
C[C@@H](N)[C@H]1CC[C@H](C(=O)Nc2ccncc2)CC1 [Y-27632],apoptosis of CECs,[5],inhibition of apoptosis
same,proliferation of corneal endothelial cells (CECs),[5],increased proliferation
same,corneal endothelial wound healing,[5]; in vitro and in vivo,enhanced corneal endothelial wound healing
